# Results: patent US4871730A, “Cephem compounds” (Fujisawa Pharmaceutical Co., Ltd., priority 1983, dated 1989)
# Test system: Escherichia coli 31
# Experiment: Minimal inhibitory concentration (MIC), in vitro antibacterial activity by two-fold agar-plate dilution method
# Format: cell-based
# Conditions: heart infusion agar, 37° C, 20 hours
# Protocol: In vitro antibacterial activity was determined by the two-fold agar-plate dilution method as described below.
# One loopful of an overnight culture of each test strain in trypticase-soy broth (10^8 viable cells per ml) was streaked on heart infusion agar (HI-agar) containing graded concentrations of representative test compounds, and the minimal inhibitory concentration (MIC) was expressed in terms of μg/ml after incubation at 37° C for 20 hours.
row,MIC [µg/mL],Structure (SMILES)
1,0.05,"C=CCO/N=C(\C(=O)NC1C(=O)N2C(C(=O)O)=C(S/C=C\c3cccnc3)CSC12)c1nsc(N)n1 (stereo not drawn) [Test compound (3), 7-[2-Allyloxyimino-2-(5-amino-1,2,4-thiadiazol-3-yl)acetamido]-3-[(Z)-2-(3-pyridyl)vinylthio]-3-cephem-4-carboxylic acid (syn isomer)]"
2,< 0.025,"CO/N=C(\C(=O)NC1C(=O)N2C(C(=O)O)=C(S/C=C\c3cccnc3)CSC12)c1csc(N)n1 (stereo not drawn) [Test compound (2), 7-[2-(2-Aminothiazol-4-yl)-2-methoxyimino-acetamido]-3-[(Z)-2-(3-pyridyl)vinylthio]-3-cephem-4-carboxylic acid (syn isomer)]"
3,< 0.025,"CO/N=C(\C(=O)NC1C(=O)N2C(C(=O)[O-])=C(S/C=C\c3ccc[n+](C)c3)CSC12)c1csc(N)n1 (stereo not drawn) [Test compound (1), 7-[2-(2-Aminothiazol-4-yl)-2-methoxyiminoacetamido]-3-[(Z)-2-(1-methyl-3-pyridinio)-vinylthio]-3-cephem-4-carboxylate (syn isomer)]"
4,< 0.025,"CCO/N=C(\C(=O)NC1C(=O)N2C(C(=O)[O-])=C(S/C=C\c3ccc[n+](C)c3)CSC12)c1csc(N)n1 (stereo not drawn) [Test compound (4), 7-[2-(2-Aminothiazol-4-yl)-2-ethoxyiminoacetamido]3-[(Z)-2-(1-methyl-3-piridinio)vinylthio]-3-cephem-4-carboxylate (syn isomer)]"
